From patent US4999358A, “(1,2,3,4-tetrahydro-9-acridinimino)cyclohexane carboxylic acid and related compounds” (Hoechst-Roussel Pharmaceuticals Inc., priority 1989, dated 1991) come the findings set out here.

Assay [1] has as its system Scopolamine Induced Memory Deficit. The assay can be described thus: Scopolamine-induced Dark Avoidance Assay. The conditions noted are these: s.c., mice, 24 h.
Method: In this assay mice are tested for their ability to remember an unpleasant stimulus for a period of 24 hours. A mouse is placed in a chamber that contains a dark compartment; a strong incandescent light drives it to the dark compartment, where an electric shock is administered through metal plates on the floor. The animal is removed from the testing apparatus and tested again, 24 hours later, for the ability to remember the electric shock.
If scopolamine, an anticholinergic that is known to cause memory impariment, is administered before an animal's initial exposure to the test chamber, the animal re-enters the dark compartment shortly after being placed in the test chamber 24 hours later.
In a further assay the target is acetylcholinesterase (Homo sapiens, UniProt P22303). The assay can be described thus: Cholinesterase inhibition assay (photometric method of Ellman et al.). It is filed as biochemical. In general terms: DTNB colorimetry detects thiols as they appear.
Chain of acetylcholinesterase (P22303 32-614): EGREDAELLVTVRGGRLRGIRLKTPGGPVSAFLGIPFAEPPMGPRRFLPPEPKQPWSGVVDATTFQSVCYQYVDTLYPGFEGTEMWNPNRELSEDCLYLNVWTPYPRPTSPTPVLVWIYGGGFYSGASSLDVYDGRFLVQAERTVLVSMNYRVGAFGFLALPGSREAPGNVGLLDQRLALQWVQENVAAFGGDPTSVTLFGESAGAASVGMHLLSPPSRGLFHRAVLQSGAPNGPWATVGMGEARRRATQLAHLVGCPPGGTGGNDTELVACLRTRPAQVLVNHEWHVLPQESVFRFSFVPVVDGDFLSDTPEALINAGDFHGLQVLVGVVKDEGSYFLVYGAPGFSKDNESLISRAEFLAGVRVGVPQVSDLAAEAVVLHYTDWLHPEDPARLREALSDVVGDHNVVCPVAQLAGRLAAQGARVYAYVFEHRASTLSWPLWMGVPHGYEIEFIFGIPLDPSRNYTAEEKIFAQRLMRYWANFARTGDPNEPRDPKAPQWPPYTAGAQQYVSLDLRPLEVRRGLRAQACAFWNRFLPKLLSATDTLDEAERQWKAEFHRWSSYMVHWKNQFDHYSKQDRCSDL

In the case of `O=C(O)C1CCCCC1=Nc1c2c(nc3ccccc13)CCCC2` (stereo not drawn) [2-(1,2,3,4-Tetrahydro-9-acridinimino)cyclohexanecarboxylic acid], the “% of Animals with Scopolamine Induced Memory Deficit Reversal” value (from here on “% of Animals”) in assay [1] (0.63 mg/kg of body weight) came out at 53%.

In the case of `O=C(OCc1ccccc1)C1=C(N(Cc2ccccc2)c2c3c(nc4ccccc24)CCCC3)CCCC1` [2-[N-(Phenylmethyl)-1,2,3,4-tetrahydro-9-acridinamino]-cyclohex-1-ene carboxylic acid phenylmethyl ester], in assay [1] (0.63 mg/kg of body weight), the “% of Animals” value worked out at 29%.

In general, IC50 refers to the point on the concentration scale where inhibition reaches its midpoint. Higher therefore signals a need for much substance. `CCOC(=O)C1CCCCC1=Nc1c2c(nc3ccccc13)CCCC2` (stereo not drawn) [2-(1,2,3,4-Tetrahydro-9-acridinimino)cyclohexanecarboxylic acid ethyl ester] displayed an IC50 against acetylcholinesterase of 15.2 µM. Moreover, in assay [1] (0.16 mg/kg of body weight), the “% of Animals” value is 29%.

For the compound `CC1(C(=O)O)CCCCC1=Nc1c2c(nc3ccccc13)CCCC2` (stereo not drawn) [1-Methyl-2-(1,2,3,4-tetrahydroacridinimino)cyclohexane carboxylic acid], the “% of Animals” value in assay [1] (2.5 mg/kg of body weight) was determined as 20%.

Turning to `CNC(=O)Oc1ccc2c(c1)[C@]1(C)CCN(C)[C@@H]1N2C` [Physostigmine, reference compound], in assay [1] (0.31 mg/kg of body weight), the “% of Animals” value came to 20%.
